Test results taken from BindingDB's records for doi:10.1016/j.bmcl.2004.04.020 (Texas Tech University Health Sciences Center, 2004).

assay: Inhibition of [3H]choline brain uptake through choline transporter was determined in situ brain perfusion studies in Male Fischer-344 rats

Structure (SMILES) | Ki
C[N+](C)(C)CCCCO | > 10000 µM
C[N+](C)(C)CCCO | 162 µM
CC[N+](CC)(CC)CCO | 1900 µM
CCN1CC=C(C(C)=O)CC1 [1-(1-Ethyl-1,2,3,6-tetrahydro-pyridin-4-yl)-ethanone] | > 10000 µM
CC(=O)C1=CCC(CCc2ccccc2)CC1 (configuration not stated) [1-(4-Phenethyl-cyclohex-1-enyl)-ethanone] | 495 µM
CCCCCCCCN1CCCCC1 [1-Octyl-piperidine] | 32 µM
CN(C)C1CCCCC1O (configuration not stated) [2-Dimethylamino-cyclohexanol] | > 10000 µM
CSCCO [2-Methylsulfanyl-ethanol] | > 10000 µM
OCCCN1CCN(Cc2cccnc2)CC1 [3-(4-Pyridin-3-ylmethyl-piperazin-1-yl)-propan-1-ol] | > 10000 µM
C[N+](C)(CCO)c1ccccc1 [(2-Hydroxy-ethyl)-dimethyl-phenyl-ammonium] | > 10000 µM
CCC[N+](C)(C)CCO [(2-Hydroxy-ethyl)-dimethyl-propyl-ammonium] | 190 µM
C[N+](C)(CCO)c1ccc(F)cc1 [(4-Fluoro-phenyl)-(2-hydroxy-ethyl)-dimethyl-ammonium] | 737 µM
CCCC[N+](C)(C)CCO [Butyl-(2-hydroxy-ethyl)-dimethyl-ammonium] | 40 µM
CC[N+](C)(C)CCO [Ethyl-(2-hydroxy-ethyl)-dimethyl-ammonium] | 94 µM
CC[N+](C)(C)C [Ethyl-trimethyl-ammonium] | 4700 µM
CC(O)C[N+](C)(C)C (stereo not drawn) [beta-methylcholine] | 200 µM

assay: as above; remark: another data set of the same source

Structure (SMILES) | Ki
CCCCCCCC[N+](C)(C)CCO [(2-Hydroxy-ethyl)-dimethyl-octyl-ammonium] | 2.1 µM
